The record followed here is patent US12378224B2 (Dong-A Socio Holdings Co., Ltd., priority 2016, dated 2025).

This assay has as its target human MER (528-end) (Homo sapiens (Human), UniProt Q12866). In words: HTRF Kinase Activity Biochemical Assay (KinEASE-TK). The note with it: 10 uM ATP. The essentials: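 Activity read-out is the HTRF ratio (665 nm over 620 nm emission, ×10,000; excitation 340 nm) after 1 h detection with 0.375 nM Eu3+-cryptate anti-TK antibody plus 0.062 uM SA-XL665. Preceding kinase step: human MER (528-end), biotinylated TK substrate, 1 h, room temperature.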

pIC50: −log10 of the molar value.

Chain of human MER (528-end) (Q12866 528-999 limits assumed): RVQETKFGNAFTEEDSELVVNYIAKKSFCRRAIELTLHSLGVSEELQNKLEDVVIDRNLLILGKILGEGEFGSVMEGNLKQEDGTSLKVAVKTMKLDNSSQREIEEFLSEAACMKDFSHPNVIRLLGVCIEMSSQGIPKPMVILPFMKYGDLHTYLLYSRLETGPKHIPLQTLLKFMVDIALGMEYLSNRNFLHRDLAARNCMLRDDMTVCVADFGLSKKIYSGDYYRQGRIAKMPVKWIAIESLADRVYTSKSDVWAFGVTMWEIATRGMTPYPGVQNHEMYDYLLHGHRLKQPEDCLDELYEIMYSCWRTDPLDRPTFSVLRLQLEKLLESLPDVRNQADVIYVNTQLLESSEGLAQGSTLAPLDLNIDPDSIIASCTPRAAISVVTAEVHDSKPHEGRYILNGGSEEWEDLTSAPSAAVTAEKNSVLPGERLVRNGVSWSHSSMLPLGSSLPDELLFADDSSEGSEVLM

One may read the pIC50 as the IC50 on a negative log10 scale, so that one unit is a factor of ten. A lower pIC50 goes with a high IC50. The molecule `Nc1ncc(-c2ccc(CO)cc2)cc1C(=O)N[C@@H]1CCN(C(=O)Nc2cccc(-c3ccccc3)c2)C1` [Example 256, (R)—N-(1-([1,1′-biphenyl]-3-ylcarbamoyl)pyrrolidin-3-yl)-2-amino-5-(4-(hydroxymethyl)phenyl)nicotinamide] gave a pIC50 of 6.00 to 7.00.

`Cn1cc(-c2cnc(N)c(C(=O)N[C@@H]3CCN(C(=O)Nc4cccc(-c5cccc(N)c5)c4)C3)c2)cn1` [Example 257, (R)-2-amino-N-(1-((3′-amino-[1,1′-biphenyl]-3-yl)carbamoyl)pyrrolidin-3-yl)-5-(1-methyl-1H-pyrazol-4-yl)nicotinamide] gave a pIC50 of 6.00 to 7.00.

In the case of `Cn1cc(-c2cnc(N)c(C(=O)N[C@@H]3CCN(C(=O)Nc4cccc(-c5ccc(N)cc5)c4)C3)c2)cn1` [Example 258, (R)-2-amino-N-(1-((4′-amino-[1,1′-biphenyl]-3-yl)carbamoyl)pyrrolidin-3-yl)-5-(1-methyl-1H-pyrazol-4-yl)nicotinamide], the pIC50 was 6.00 to 7.00.

For `Cn1cc(-c2cnc(N)c(C(=O)N[C@@H]3CCN(C(=O)Nc4cccc(-c5ccc(CO)cc5)c4)C3)c2)cn1` [Example 259, (R)-2-amino-N-(1-((4′-(hydroxymethyl)-[1,1′-biphenyl]-3-yl)carbamoyl)pyrrolidin-3-yl)-5-(1-methyl-1H-pyrazol-4-yl)nicotinamide], the negative logarithm of the IC50 (pIC50) was 6.00 to 7.00.

With `Cn1cc(-c2cnc(N)c(C(=O)N[C@@H]3CCN(C(=O)Nc4cccc(-c5cnn(C6CCNCC6)c5)c4)C3)c2)cn1` [Example 260, (R)-2-amino-5-(1-methyl-1H-pyrazol-4-yl)-N-(1-((3-(1-(piperidin-4-yl)-1H-pyrazol-4-yl)phenyl)carbamoyl)pyrrolidin-3-yl)nicotinamide], the pIC50 was below 6.00.

For `Cn1cc(-c2cnc(N)c(C(=O)N[C@@H]3CCN(C(=O)Nc4cccc(-c5ccc(N6CCNCC6)nc5)c4)C3)c2)cn1` [Example 261, (R)-2-amino-5-(1-methyl-1H-pyrazol-4-yl)-N-(1-((3-(6-(piperazin-1-yl)pyridin-3-yl)phenyl)carbamoyl)pyrrolidin-3-yl)nicotinamide], the pIC50 was 6.00 to 7.00.

`CNc1ccc(-c2cccc(NC(=O)N3CC[C@@H](NC(=O)c4cc(-c5cnn(C)c5)cnc4N)C3)c2)cc1` [Example 262, (R)-2-amino-5-(1-methyl-1H-pyrazol-4-yl)-N-(1-((4′-(methylamino)-[1,1′-biphenyl]-3-yl)carbamoyl)pyrrolidin-3-yl)nicotinamide]: the pIC50 was 6.00 to 7.00.

As for `Cn1cc(-c2cnc(N)c(C(=O)N[C@@H]3CCN(C(=O)Nc4cccc(-c5cccc(CO)c5)c4)C3)c2)cn1` [Example 264, (R)-2-amino-N-(1-((3′-(hydroxymethyl)-[1,1′-biphenyl]-3-yl)carbamoyl)pyrrolidin-3-yl)-5-(1-methyl-1H-pyrazol-4-yl)nicotinamide], the pIC50 is 6.00 to 7.00.

`CN(C)Cc1cccc(-c2cccc(NC(=O)N3CC[C@@H](NC(=O)c4cc(-c5cnn(C)c5)cnc4N)C3)c2)c1` [Example 265, (R)-2-amino-N-(1-((3′-((dimethylamino)methyl)-[1,1′-biphenyl]-3-yl)carbamoyl)pyrrolidin-3-yl)-5-(1-methyl-1H-pyrazol-4-yl)nicotinamide] gave a pIC50 of 7.00 to 8.00.

For the molecule `CN1CCN(Cc2cccc(-c3cccc(NC(=O)N4CC[C@@H](NC(=O)c5cc(-c6cnn(C)c6)cnc5N)C4)c3)c2)CC1` [Example 267, (R)-2-amino-5-(1-methyl-1H-pyrazol-4-yl)-N-(1-((3′-((4-methylpiperazin-1-yl)methyl)-[1,1′-biphenyl]-3-yl)carbamoyl)pyrrolidin-3-yl)nicotinamide], the pIC50 is below 6.00.

As for `CN1CCN(Cc2ccc(-c3cccc(NC(=O)N4CC[C@@H](NC(=O)c5cc(-c6cnn(C)c6)cnc5N)C4)c3)cc2)CC1` [Example 268, (R)-2-amino-5-(1-methyl-1H-pyrazol-4-yl)-N-(1-((4′-((4-methylpiperazin-1-yl)methyl)-[1,1′-biphenyl]-3-yl)carbamoyl)pyrrolidin-3-yl)nicotinamide], the pIC50 was 7.00 to 8.00.

The molecule `Cn1cc(-c2cnc(N)c(C(=O)N[C@@H]3CCN(C(=O)Nc4ccc(-c5ccc(CN)cc5)cc4)C3)c2)cn1` [Example 270, (R)-2-amino-N-(1-((4′-(aminomethyl)-[1,1′-biphenyl]-4-yl)carbamoyl)pyrrolidin-3-yl)-5-(1-methyl-1H-pyrazol-4-yl)nicotinamide] had a pIC50 below 6.00.

Molecule `Cn1cc(-c2cnc(N)c(C(=O)N[C@@H]3CCN(C(=O)Nc4ccc(-c5ccccc5)cc4)C3)c2)cn1` [Example 271, (R)—N -(1-([1,1′-biphenyl]-4-ylcarbamoyl)pyrrolidin-3-yl)-2-amino-5-(1-methyl-1H-pyrazol-4-yl)nicotinamide] gave a pIC50 of 6.00 to 7.00.

`CN1CCN(Cc2ccc(-c3cccc(NC(=S)N4CC[C@@H](NC(=O)c5cc(-c6cnn(C)c6)cnc5N)C4)c3)cc2)CC1` [Example 274, (R)-2-amino-5-(1-methyl-1H-pyrazol-4-yl)-N-(1-((4′-((4-methylpiperazin-1-yl)methyl)-[1,1′-biphenyl]-3-yl)carbamothioyl)pyrrolidin-3-yl)nicotinamide]: the pIC50 was 7.00 to 8.00.

As to `CN1CCN(Cc2ccc(-c3cccc(OC(=O)N4CC[C@@H](NC(=O)c5cc(-c6cnn(C)c6)cnc5N)C4)c3)cc2)CC1` [Example 275, 4′-((4-methylpiperazin-1-yl)methyl)-[1,1′-biphenyl]-3-yl (R)-3-(2-amino-5-(1-methyl-1H-pyrazol-4-yl)nicotinamido)pyrrolidine-1-carboxylate], the pIC50 was 6.00 to 7.00.

Regarding `Cn1cc(-c2cnc(N)c(C(=O)N[C@@H]3CCN(C(=O)Oc4cccc(-c5ccc(C(=O)O)cc5)c4)C3)c2)cn1` [Example 278, (R)-3′-((3-(2-amino-5-(1-methyl-1H-pyrazol-4-yl)nicotinamido)pyrrolidine-1-carbonyl)oxy)-[1,1′-biphenyl]-4-carboxylic acid], the pIC50 is below 6.00.

In turn, `Cn1cc(-c2cnc(N)c(C(=O)N[C@@H]3CCN(C(=O)Oc4cccc(-c5ccc(O)cc5)c4)C3)c2)cn1` [Example 279, 4′-hydroxy-[1,1′-biphenyl]-3-yl (R)-3-(2-amino-5-(1-methyl-1H-pyrazol-4-yl)nicotinamido)pyrrolidine-1-carboxylate] showed a pIC50 of 6.00 to 7.00.

Regarding `Cn1cc(-c2cnc(N)c(C(=O)N[C@@H]3CCN(C(=O)Oc4cccc(-c5ccc(CO)cc5)c4)C3)c2)cn1` [Example 280, 4′-(hydroxymethyl)-[1,1′-biphenyl]-3-yl (R)-3-(2-amino-5-(1-methyl-1H-pyrazol-4-yl)nicotinamido)pyrrolidine-1-carboxylate], the pIC50 is 6.00 to 7.00.

In turn, `Cn1cc(-c2cnc(N)c(C(=O)N[C@@H]3CCN(C(=O)Oc4cccc(-c5cnn(CCO)c5)c4)C3)c2)cn1` [Example 284, 3-(1-(2-hydroxyethyl)-1H-pyrazol-4-yl)phenyl (R)-3-(2-amino-5-(1-methyl-1H-pyrazol-4-yl)nicotinamido)pyrrolidine-1-carboxylate] gave a pIC50 below 6.00.

`Cn1cc(-c2cnc(N)c(C(=O)N[C@@H]3CCN(C(=O)Oc4cccc(-c5cnn(CCN6CCOCC6)c5)c4)C3)c2)cn1` [Example 287, 3-(1-(2-morpholinoethyl)-1H-pyrazol-4-yl)phenyl (R)-3-(2-amino-5-(1-methyl-1H-pyrazol-4-yl)nicotinamido)pyrrolidine-1-carboxylate] showed a pIC50 below 6.00.
